Data taken from patent US20240360148A1 (SUVALENT THERAPEUTICS, INC., priority 2021, published 2024).

Columns and labels:
[1] = tested on: sumoylation levels (SUMO 2/3 conjugates) in HCT-116 cells; test: HCT-116 4 Hour Cell Assay (Western, SUMO 2/3 conjugates); assay type: cell-based; conditions: Homo sapiens, HCT-116, 4 h, 4 h treatment, Anti-Sumo 2-3 immunoblot, read-out: HCT-116 Western 4 h IC50 (μM) Ave
Procedure, shortened: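 Cells treated 4 h with 11 three-fold dilutions from 25 μM; lysed in RIPA with NEM and Benzonase. Non-reducing SDS-PAGE immunoblot with anti-SUMO 2/3 mAb, IRDye fluorescent detection; conjugate signal normalized to total protein stain, IC50 from quantified bands.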

[2] = molecular target: SAE1 (Homo sapiens (Human), UniProt Q9UBT2); test: SAE High Throughput Biochemical Assay (HTRF), 15 min preincubation; conditions: SAE1 12.5 nM, ATP 100 μM
Procedure, shortened: (§1)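 SAE1 (12.5 nM) was preincubated with compound for 15 min at RT in HEPES pH 7.5, 0.1% BSA, 10 mM MgCl2. The reaction was then started with SUMO-GST and UBC9-His (40 nM each) plus 100 μM ATP for 45 min. After KF stop, HTRF (anti-GST-XL665/anti-His-EuK) was read at 2 h and overnight; some compounds were tested singly at 25 micromolar as percent of control.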

[3] = Plasma protein binding, equilibrium dialysis, mouse plasma; assay type: in vitro ADME; conditions: 5 hours at 37° C., read-out: PPB % bound Mouse (converted)
Protocol: The compounds of interest were evaluated for various PK parameters. Specifically CACO permeability/efflux and plasma protein binding (PPP) were determined. Stock solutions were prepared at 10 mM in DMSO for test and reference compounds. Aliquots of the stock solution were diluted to 500× of final concentration (0.5 mM) with DMSO, then further diluted upon the addition of bank PE3-buffer to 20× of final concentration (20 μM). Then test and reference compounds were prepared in plasma at 1 μM. For 0 hour incubation: 25 μL of the plasma spiked with test and reference compounds was transferred into a 96-well sample preparation plate, and then 25 μL blank PB-buffer was added. The samples were quenched by 200 μL of IS solution to prepare [Initial]0h samples. For 5 hours incubation: 100 μL of the plasma spiking with test and reference compounds was loaded on donor side, and 100 μL of blank PB-buffer were loaded on receiver side of the equilibrium dialysis device. Samples were incubated in an air-bath shaker (60 rpm) for 5 hours at 37° C. After 5 hours incubation, 25 μL of samples (from both the donor sides and receiver sides of the dialysis apparatus) was aspirated and added into new sample preparation plates, separately. 25 μL of blank PB-buffer was added to donor side samples and 25 μL of blank plasma was added to receiver side samples to balance the matrix. The samples were quenched with 200 μL of IS solution. The assay plate was shaken at the vibrator (Hangzhou Allsheng, MX100-4A) for 10 min (600 rpm) and then centrifuged at 5,594×g for 15 min (Thermo Multifuge×3R). An aliquot of the 50 μL supernatant was taken from each well and diluted by 50 μL distilled water, then analyzed by UPLC-MS/MS.

[4] = molecular target: SAE1 (Homo sapiens (Human), UniProt Q9UBE0+Q9UBT2); test: SAE High Throughput Biochemical Assay (HTRF), 15 min preincubation; conditions: read-out: 15 min preincubation HTRF IC50 (μM) Ave, SAE1 12.5 nM, ATP 100 μM
Procedure, shortened: as §1

Sequence of SAE1 (Homo sapiens (Human), UniProt Q9UBT2) (Q9UBE0 whole entry): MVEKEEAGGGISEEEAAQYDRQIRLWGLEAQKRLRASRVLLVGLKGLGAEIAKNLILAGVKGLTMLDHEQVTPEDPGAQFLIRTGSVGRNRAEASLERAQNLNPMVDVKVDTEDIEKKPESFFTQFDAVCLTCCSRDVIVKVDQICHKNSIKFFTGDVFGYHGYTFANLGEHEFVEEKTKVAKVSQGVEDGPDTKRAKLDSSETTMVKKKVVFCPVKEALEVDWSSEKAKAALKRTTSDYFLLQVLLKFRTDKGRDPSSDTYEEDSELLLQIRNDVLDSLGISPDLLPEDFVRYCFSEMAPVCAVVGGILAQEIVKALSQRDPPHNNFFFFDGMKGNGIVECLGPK
Sequence of SAE1 (Homo sapiens (Human), UniProt Q9UBT2) (Q9UBT2 whole entry): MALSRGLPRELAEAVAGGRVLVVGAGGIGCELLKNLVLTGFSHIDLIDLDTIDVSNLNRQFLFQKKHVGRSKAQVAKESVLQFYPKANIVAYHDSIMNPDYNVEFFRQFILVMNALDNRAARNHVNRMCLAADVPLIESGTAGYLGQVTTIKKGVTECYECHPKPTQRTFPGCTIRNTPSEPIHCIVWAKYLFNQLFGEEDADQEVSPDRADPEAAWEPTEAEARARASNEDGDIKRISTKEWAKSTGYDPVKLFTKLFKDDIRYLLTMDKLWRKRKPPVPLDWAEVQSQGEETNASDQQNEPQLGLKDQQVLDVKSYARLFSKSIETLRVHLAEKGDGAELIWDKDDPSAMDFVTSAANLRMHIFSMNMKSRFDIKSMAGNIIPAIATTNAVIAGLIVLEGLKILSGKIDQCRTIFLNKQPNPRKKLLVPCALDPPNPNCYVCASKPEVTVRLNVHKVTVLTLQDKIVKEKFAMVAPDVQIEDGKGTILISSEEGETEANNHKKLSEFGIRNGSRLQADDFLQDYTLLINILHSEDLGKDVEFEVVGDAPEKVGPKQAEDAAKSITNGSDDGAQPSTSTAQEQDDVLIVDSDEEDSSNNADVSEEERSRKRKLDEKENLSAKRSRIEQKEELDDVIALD
Sequence of SAE1 (Homo sapiens (Human), UniProt Q9UBE0+Q9UBT2) (Q9UBE0 whole entry): as the sequence (Q9UBE0 whole entry) above
Sequence of SAE1 (Homo sapiens (Human), UniProt Q9UBE0+Q9UBT2) (Q9UBT2 whole entry): as the sequence (Q9UBT2 whole entry) above

Compound	IC50 [1]	IC50 [2]	fraction unbound at 5 h, 1 μM [3]	IC50 [4]
CCn1cc(-c2c(F)cccc2[C@@H]2CN(C(=O)/C=C\CN(C)C)Cc3sc(C#N)c(C)c32)c(C(F)(F)F)n1 [Compound 223]	0.0473 µM	52 nM		
CCn1cc(-c2c(F)cccc2[C@@H]2CN(C(=O)/C=C\CNC)Cc3sc(C#N)c(C)c32)c(C(F)(F)F)n1 [Compound 225]	0.298 µM	34 nM		
C=CC(=O)N1Cc2sc(C#N)cc2[C@H](c2cccc(F)c2-c2cn(CC)nc2C(F)(F)F)C1 [Compound 227]	0.057 µM		0.021	0.12 µM
CCn1cc(-c2ccccc2[C@@H]2CN(C(=O)/C=C/C(C)N(C)C)Cc3sc(C#N)cc32)c(C(F)(F)F)n1 (stereo partly shown) [Compound 235]	0.285 µM	4150 nM		
CCn1cc(-c2ccccc2[C@@H]2CN(C(=O)/C=C/COC)Cc3sc(C#N)cc32)c(C(F)(F)F)n1 [Example 7, (S, E)-4-(2-(1-Ethyl-3-(trifluoromethyl)-1 H-pyrazol-4-yl)phenyl)-6-(4-methoxybut-2-enoyl)-4,5,6,7-tetrahydrothieno[2,3-c]pyridine-2-carbonitrile]	1.95 µM	9310 nM		
CCn1cc(-c2ccccc2[C@@H]2CN(C(=O)/C=C/C(F)(F)F)Cc3sc(C#N)cc32)c(C(F)(F)F)n1 [Example 22, (S, E)-4-(2-(1-ethyl-3-(trifluoromethyl)-1 H-pyrazol-4-yl)phenyl)-6-(4,4,4-trifluorobut-2-enoyl)-4,5,6,7-tetrahydrothieno[2,3-c]pyridine-2-carbonitrile]	0.214 µM	390 nM		
CCn1cc(-c2ccccc2[C@@H]2CN(C(=O)/C=C/C(N)Cc3ccccc3)Cc3sc(C#N)cc32)c(C(F)(F)F)n1 (stereo partly drawn) [Example 44, (4S)-6-((E)-4-amino-5-phenylpent-2-enoyl)-4-(2-(1-ethyl-3-(trifluoromethyl)-1 H-pyrazol-4-yl)phenyl)-4,5,6,7-tetrahydrothieno[2,3-c]pyridine-2-carbonitrile]		9860 nM		
CCn1cc(-c2ccccc2[C@@H]2CN(C(=O)/C=C/CCNC)Cc3sc(C#N)cc32)c(C(F)(F)F)n1 [Example 45, (S, E)-4-(2-(1-ethyl-3-(trifluoromethyl)-1 H-pyrazol-4-yl)phenyl)-6-(5-(methylamino)pent-2-enoyl)-4,5,6,7-tetrahydrothieno[2,3-c]pyridine-2-carbonitrile]		23200 nM		
CCn1cc(-c2ccccc2[C@@H]2CN(C(=O)/C=C/[C@@H](C)N)Cc3sc(C#N)cc32)c(C(F)(F)F)n1 [Example 47, (S)-6-((R, E)-4-aminopent-2-enoyl)-4-(2-(1-ethyl-3-(trifluoromethyl)-1 H-pyrazol-4-yl)phenyl)-4,5,6,7-tetrahydrothieno[2,3-c]pyridine-2-carbonitrile]	2.72 µM	3370 nM		
[2H]C([2H])([2H])N(C/C=C/C(=O)N1Cc2sc(C#N)cc2[C@H](c2cccc(F)c2-c2cn(CC)nc2C(F)(F)F)C1)C([2H])([2H])[2H] [Example 48, (S,E)-6-(4-(bis(methyl-d3)amino)but-2-enoyl)-4-(2-(1-ethyl-3-(trifluoromethyl)-1 H-pyrazol-4-yl)-3-fluorophenyl)-4,5,6,7-tetrahydrothieno[2,3-c]pyridine-2-carbonitrile]	0.197 µM	1120 nM		
CCn1cc(-c2ccccc2[C@@H]2CN(C(=O)/C=C/[C@H]3CCCN3C)Cc3sc(C#N)cc32)c(C(F)(F)F)n1 [Example 90, (S)-4-(2-(1-Ethyl-3-(trifluoromethyl)-1 H-pyrazol-4-yl)phenyl)-6-((E)-3-((R)-1-methylpyrrolidin-2-yl)acryloyl)-4,5,6,7-tetrahydrothieno[2,3-c]pyridine-2-carbonitrile]	3.05 µM	5680 nM		
CCn1cc(-c2ccccc2[C@@H]2CN(C(=O)/C=C/CNC3(C)CC3)Cc3sc(C#N)cc32)c(C(F)(F)F)n1 [Example 94, (S,E)-4-(2-(1-Ethyl-3-(trifluoromethyl)-1H pyrazol-4-yl)phenyl)-6-(4-((1-methylcyclopropyl)amino)but-2-enoyl)-4,5,6,7-tetrahydrothieno[2,3-c]pyridine-2-carbonitrile]	1.16 µM	1860 nM		
CCn1cc(-c2ccccc2[C@@H]2CN(C(=O)/C=C/CNC3(C)CNC3)Cc3sc(C#N)cc32)c(C(F)(F)F)n1 [Example 98, (S,E)-4-(2-(1-Ethyl-3-(trifluoromethyl)-1H pyrazol-4-yl)phenyl)-6-(4-((3-methylazetidin-3-yl)amino)but-2-enoyl)-4,5,6,7-tetrahydrothieno[2,3-c]pyridine-2-carbonitrile]		> 25000 nM		
CCn1cc(-c2ccccc2[C@@H]2CN(C(=O)/C=C/C3CNC3)Cc3sc(C#N)cc32)c(C(F)(F)F)n1 [Example 108, (S, E)-6-(3-(Azetidin-3-yl)acryloyl)-4-(2-(1-ethyl-3-(trifluoromethyl)-1 H-pyrazol-4-yl)phenyl)-4,5,6,7-tetrahydrothieno[2,3-c]pyridine-2-carbonitrile]		11000 nM		
CCn1cc(-c2ccccc2[C@@H]2CN(C(=O)C#CC(C)(C)N)Cc3sc(C#N)cc32)c(C(F)(F)F)n1 [Example 134, (S)-6-(4-Amino-4-methylpent-2-ynoyl)-4-(2-(1-ethyl-3-(trifluoromethyl)-1H-pyrazol-4-yl)phenyl)-4,5,6,7-tetrahydrothieno[2,3-c]pyridine-2-carbonitrile]	3.12 µM	320 nM		
CC(C)n1cc(-c2ccccc2[C@@H]2CN(C(=O)/C=C/CN(C)C)Cc3sc(C#N)cc32)c(C(F)(F)F)n1 [Example 175]	0.321 µM	3050 nM		
COc1cncnc1-n1cc(-c2ccccc2[C@@H]2CN(C(=O)/C=C/CN(C)C)Cc3sc(C#N)cc32)c(C(F)(F)F)n1 [Example 178, (S,E)-6-(4-(dimethylamino)but-2-enoyl)-4-(2-(1-(5-methoxypyrimidin-4-yl)-3-(trifluoromethyl)-1H pyrazol-4-yl)phenyl)-4,5,6,7-tetrahydrothieno[2,3-c]pyridine-2-carbonitrile]	0.69 µM	16700 nM		
CCn1cc(-c2cc(C(=O)NC)ccc2C2CN(C(=O)/C=C/CN(C)C)Cc3sc(C#N)cc32)c(C(F)(F)F)n1 (stereo not shown) [Example 208, (E)-4-(2-Cyano-6-(4-(dimethylamino)but-2-enoyl)-4,5,6,7-tetrahydrothieno[2,3-c]pyridin-4-yl)-3-(1-ethyl-3-(trifluoromethyl)-1 H pyrazol-4-yl)-N-methylbenzamide]		> 25000 nM		
CCn1cc(-c2ccccc2C2CN(C(=O)/C=C/CN(C)C)Cc3sc(C#N)c(Cl)c32)c(C(F)(F)F)n1 (stereo not shown) [Example 214, (E)-3-chloro-6-(4-(dimethylamino)but-2-enoyl)-4-(2-(1-ethyl-3-(trifluoromethyl)-1 H-pyrazol-4-yl)phenyl)-4,5,6,7-tetrahydrothieno[2,3-c]pyridine-2-carbonitrile]	0.356 µM	3970 nM		
CNC/C=C/C(=O)N1Cc2sc(C#N)c(C)c2[C@H](c2cccc(F)c2-c2cn(C)nc2C(F)(F)F)C1 [Example 216, (S,E)-4-(3-fluoro-2-(1-methyl-3-(trifluoromethyl)-1 H-pyrazol-4-yl)phenyl)-3-methyl-6-(4-(methylamino)but-2-enoyl)-4,5,6,7-tetrahydrothieno[2,3-c]pyridine-2-carbonitrile]	0.1 µM	180 nM		
[2H]C([2H])([2H])N(C/C=C/C(=O)N1Cc2sc(C#N)cc2[C@H](c2ccccc2-c2cn(CC)nc2C(F)(F)F)C1)C([2H])([2H])[2H] [Example 245, (S,E)-6-(4-(bis(methyl-d3)amino)but-2-enoyl)-4-(2-(1-ethyl-3-(trifluoromethyl)-1 H-pyrazol-4-yl)phenyl)-4,5,6,7-tetrahydrothieno[2,3-c]pyridine-2-carbonitrile]	0.207 µM	4150 nM		
CCn1cc(-c2c(F)cccc2[C@@H]2CN(C(=O)/C=C/[C@@H]3CCCN3)Cc3sc(C#N)c(C)c32)c(C(F)(F)F)n1 [Example 249, (S)-4-(2-(1-ethyl-3-(trifluoromethyl)-1 H-pyrazol-4-yl)-3-fluorophenyl)-3-methyl-6-((E)-3-((S)-pyrrolidin-2-yl)acryloyl)-4,5,6,7-tetrahydrothieno[2,3-c]pyridine-2-carbonitrile]	0.169 µM	140 nM		
